The source of these data is US6458769B1, “Amorphous compound” (AstraZeneca AB, priority 2001, dated 2002).

Data set [1] can be described thus: Solubility determination by titrating deionised water, assessed visually. In kind it is physicochemical. Conditions: visual, lower limit = soluble, upper limit = undissolved material present. The protocol:
Solubility was assessed using known quantities (approx 1 mg) and titrating small volumes (2-40 microlitres) of deionised water and assessed visually. The data given are ranges. The lower limit represents soluble and upper limit the presence of undissolved material.

Data set [2] in a line: Differential Scanning Calorimetry (DSC) glass transition. Conditions: dry amorphous lisinopril, anomalous endotherm. In kind it is physicochemical. The protocol: Differential Scanning Calorimetry (DSC) was performed on approximately 0.5-3 mg sample, using a Mettler DSC820 instrument, according to standard methods, for example those described in Hohne et al. (1996) Differential scanning Calorimetry, Springer, Berlin.
(In general: DSC measures the heat that a sample takes up or gives off during a temperature scan.)

Data set [3] is described as follows: Thermal Mechanical Analysis (TMA) glass transition point. In kind it is physicochemical. Conditions: compressed pellet, heating rate 10° C./min, 30-160° C. As for the experimental part:
The method involves compressing 140 mg of material in a punch and die (3 mm) to 2 KN. The compressed pellet was then placed on the TMA and the 1.1 mm probe placed on the top face. A heating rate of 10° C./min was used and the sample was heated from 30-160° C.

For data set [4] the following is noted: cited from earlier work.
The conditions of data set [5]: literature value, Ip et al. 1992; cited from earlier work.

`NCCCC[C@H](NC(CCc1ccccc1)C(=O)O)C(=O)N1CCC[C@H]1C(=O)O` (stereo partly drawn) [amorphous lisinopril, (S)-1-[N^2-(1-carboxy-3-phenylpropyl]-L-lysyl]-L-proline]: the solubility (usually how much of the substance goes into solution per volume) in data set [1] (listed as Amorphous) was in the range of 900 to 1250 mg/mL. In data set [2], the “glass transition temperature (Tg) by DSC” value is 125 °C. For the same molecule, the “glass transition temperature by TMA” value in data set [3] came to 129 °C.

As to `NCCCC[C@H](NC(CCc1ccccc1)C(=O)O)C(=O)N1CCC[C@H]1C(=O)O` (stereo partly drawn) [lisinopril, (S)-1-[N^2-(1-carboxy-3-phenylpropyl]-L-lysyl]-L-proline], the “effective half-life of accumulation” value in data set [4] (multiple dosing) was “about 12.6 hours”. Also, the “time to peak serum concentrations” value in data set [4] (oral administration) is at most 7 h.

Consider `NCCCC[C@H](NC(CCc1ccccc1)C(=O)O)C(=O)N1CCC[C@H]1C(=O)O` (stereo partly drawn) [Dihydrate, (S)-1-[N^2-(1-carboxy-3-phenylpropyl]-L-lysyl]-L-proline], for which the “solubility” value in data set [1] fell in the range of 60 to 65 mg/mL. The “Reference solubility (mg/ml)” value in data set [5] was 97^1 mg/ml.
